We go through nine molecules from US20060013796A1, “Hair and/or scalp treatment composition” (priority 2002, published 2006).

The subject of test [1] is Malassezia furfur CBS 7019. As to the kind of experiment: Microtitre plate cross-assay, Fractional Inhibitory Concentration (FIC) with conventional anti-dandruff/anti-fungal agents. In kind it is cell-based. The settings on record: M. furfur CBS 7019; for FIC interpretation with Octopirox / FIC values with Octopirox: combination with Octopirox; for FIC values with Octopirox / FIC values with climbazole / FIC values with zinc pyrithione (ZnPTO): triplicate; for FIC interpretation with climbazole / FIC values with climbazole: combination with climbazole; for FIC interpretation with zinc pyrithione (ZnPTO) / FIC values with zinc pyrithione (ZnPTO): combination with zinc pyrithione (ZnPTO). As for the experimental part: FIC values are for activity against M.furfur, such as CBS 7019, and are calculated in ways well-known in the art.
(§1) Studies into anti-microbial action were performed using a microtitre plate cross-assay in triplicate against the type strain Malassezia furfur CBS 7019. The Fractional Inhibitory Concentration (FIC), the concentration of biocide in a mixture of biocides that inhibits growth, was determined for natural oils and a number of terpenoid components with the conventional anti-dandruff/anti-fungal agents.
The definition of synergy is a combination of biocides in which the effect is greater than the sum of the expected effects of the individual components.

Test [2] has as its system Malassezia furfur CBS 7019. In words: MIC of oils and their components, microtitre plate assay. It is filed as cell-based. The conditions noted are these: substance alone. As for the experimental part: as §1

Take `C=CCc1ccc(OC)cc1` [4-allylanisole]: in test [1], the “FIC interpretation with Octopirox” value is “antagonistic (>1 antagonistic)”, the “FIC values with Octopirox” value stood at 2, the “FIC interpretation with climbazole” value is given as “antagonistic (>1 antagonistic)” and the “FIC values with climbazole” value is 2. In test [1], the “FIC interpretation with zinc pyrithione (ZnPTO)” value (shortened to “FIC interpretation … (ZnPTO)”) is given as “synergy (<1 synergy)” and the “FIC values with zinc pyrithione (ZnPTO)” value is recorded as 0.725. Besides, in test [2], the “MIC values for oils and their components” value is listed as 0.25%.

As for `C=C1C2CCC(C2)C1(C)C` (centres unmarked) [Camphene], the “MIC values for oils and their components” value in test [2] is reported as above 8%.

`CC12CCC(CC1)C(C)(C)O2` [Cineole]: the “MIC values for oils and their components” value in test [2] is given as 1%.

Turning to `C=CCc1ccc(O)c(OC)c1` [Eugenol, eugenol], in test [1], the “FIC interpretation with Octopirox” value was “synergy (<1 synergy)”, the “FIC values with Octopirox” value is on record as 0.567, the “FIC interpretation with climbazole” value is recorded as “synergy (<1 synergy)” and the “FIC values with climbazole” value came to 0.56. In test [1], the “FIC interpretation … (ZnPTO)” value was “synergy (<1 synergy)” and the “FIC values with zinc pyrithione (ZnPTO)” value is 0.625. In addition, the “MIC values for oils and their components” value in test [2] came to 0.01%.

`C=C(C)[C@H]1CC=C(C)CC1` [Limonene]: in test [1], the “FIC interpretation with Octopirox” value is “antagonistic (>1 antagonistic)”, the “FIC values with Octopirox” value is 2, the “FIC interpretation with climbazole” value was “antagonistic (>1 antagonistic)” and the “FIC values with climbazole” value is recorded as 2. In test [1], the “FIC interpretation … (ZnPTO)” value was “antagonistic (>1 antagonistic)” and the “FIC values with zinc pyrithione (ZnPTO)” value was 1.5. Further, in test [2], the “MIC values for oils and their components” value is above 8%.

For the molecule `C=CC(C)(O)CCC=C(C)C` (centres unmarked) [Linalool, linalool], in test [1], the “FIC interpretation with Octopirox” value is “antagonistic (>1 antagonistic)”, the “FIC values with Octopirox” value worked out at 2, the “FIC values with climbazole” value was found to be 0.417 and the “FIC interpretation … (ZnPTO)” value is “synergy (<1 synergy)”. The “FIC values with zinc pyrithione (ZnPTO)” value in test [1] is listed as 0.625. In addition, the “MIC values for oils and their components” value in test [2] is 0.01%.

With `CC1=CCC(O)(C(C)C)CC1` (centres unmarked) [terpinen-4-ol], in test [1], the “FIC interpretation with Octopirox” value is recorded as “antagonistic (>1 antagonistic)”, the “FIC values with Octopirox” value was found to be 2, the “FIC values with climbazole” value was found to be 0.37 and the “FIC interpretation … (ZnPTO)” value is on record as “synergy (<1 synergy)”. Also, the “FIC values with zinc pyrithione (ZnPTO)” value in test [1] worked out at 0.83.

With `CC1=CCC2CC1C2(C)C` (stereo not drawn) [α-pinene], in test [1], the “FIC interpretation with Octopirox” value was “antagonistic (>1 antagonistic)”, the “FIC values with Octopirox” value was found to be 2, the “FIC interpretation with climbazole” value is on record as “antagonistic (>1 antagonistic)” and the “FIC values with climbazole” value amounted to 2. Besides, in test [1], the “FIC interpretation … (ZnPTO)” value is listed as “antagonistic (>1 antagonistic)” and the “FIC values with zinc pyrithione (ZnPTO)” value is listed as 1.42. Also, in test [2], the “MIC values for oils and their components” value was determined as 0.3%.

For `CC1=CCC(C(C)(C)O)CC1` (stereo not drawn) [α-terpineol, alpha-terpineol], in test [1], the “FIC values with Octopirox” value was determined as 2, the “FIC interpretation with climbazole” value is reported as “synergy (<1 synergy)”, the “FIC values with climbazole” value amounted to 0.625 and the “FIC interpretation … (ZnPTO)” value is given as “antagonistic (>1 antagonistic)”. The “FIC values with zinc pyrithione (ZnPTO)” value in test [1] amounted to 2. For the same molecule, the “MIC values for oils and their components” value in test [2] was 0.02%.
